# Test results as given in paper PMC10754118, “Lipophilic Nucleoside Triphosphate Prodrugs of Anti‐HIV Active Nucleoside Analogs as Potential Antiviral Compounds” (Advanced Science, 2023).
# Read-outs that look alike come from different tables or passages of the source.
# Experiments:
# [1] = Chemical hydrolysis in phosphate buffer saline (PBS, pH 7.3); type: physicochemical; conditions: PBS pH 7.3, 37 °C, read-out: PBS pH 7.3 t 1/2 (converted)
# Protocol: (§1) Part 4. Chemical Hydrolysis of TriPPPro-compounds 10 and 20.
# Second prepare 1.9 mM hydrolysis […]
# (§2) Then, aliquots of 50 µL human
# in vitro [2] = conditions: human
# Protocol: The hydrolysis properties of TriPPPro‐compounds 10 and 20 were evaluated in phosphate buffer saline (PBS, pH 7.3), pig liver esterase (PLE) or CEM/0 cell extracts. In both cases, hydrolysis products were analyzed by means of analytical RP18‐HPLC and the hydrolysis half‐lives (Table 1 , t1/2 ) of TriPPPro‐compounds 10 and 20 were calculated after complete consumption of the starting materials.
# The hydrolysis of TriPPPro‐compounds 10 and 20 was carried out with CEM/0 cell extracts as well. […]
# Part 6. Enzyme-Catalyzed Hydrolysis of TriPPPro-compounds 10 and 20 in CEM Cell […]
# First prepare 3.0 mM hydrolysis solutions of Tri PPPro-compounds 10 and 20 in DMSO and H2O: 21 µL stock solution (50 mM in DMSO) and 154 µL DMSO, and 175 µL Milli-Q water. Three-twelve different samples (20 µL 3.0 mM hydrolysis solutions) were prepared in 2 mL Eppendorf® vials. Then, aliquots of 50 µL human CEM cell extracts were added to these samples and the reaction was started. The samples were incubated at 37 °C in a thermomixer for different time periods. The reaction was stopped by addition of 150 µL MeOH and kept on ice for 5 min. After centrifugation at 14,000 rpm for 12 min, the supernatants were filtered (Chromafil RC-20/15 MS, 0.2 μm) and stored in liquid nitrogen. When testing, aliquots of 60 µL (injection volume) were analyzed by analytical HPLC (HPLC Method). The calculation of t1/2 was obtained using Origin again.
# (§3) Part 7. Hydrolysis of TriPPPro-compounds 10 and 20 in human plasma.
# µL 3.0 mM hydrolysis solutions) were prepared in 2 mL Eppendorf® vials.
# pig liver esterase (PLE) = assay: Hydrolysis with pig liver esterase (PLE); type: in vitro ADME; conditions: pig liver esterase (PLE) in PBS, PLE in PBS pH 7.3, 37 °C, read-out: PLE t 1/2 (converted)
# Source text: Next, TriPPPro‐compounds 10 and 20 were exposed to PLE in PBS (pH 7.3) and the half‐lives of TriPPPro‐compounds 10 and 20 are listed in Table 1. […] In contrast, the cleavage of the AB (C4) masking group in TriPPPro‐compounds 10by–hy and 10bz–hz was triggered by ester hydrolysis and yielded the corresponding γ‐alkylated nucleoside triphosphate derivatives 20 (Figure 3B,D) and 21 (Figures S17 and S18, Supporting Information), respectively. […] Moreover, a very small amount of NDPs was observed, probably due to a reaction involving a nucleophilic reaction at the γ‐phosphate or γ‐phosphonate moiety (pathways d and f, Scheme 5). […]
# as §1
# Second prepare 1.9 mM hydrolysis
# Part 5. Hydrolysis of TriPPPro-compounds 10 and 20 with PLE .
# Second, 125 µL DMSO and 833 µL
# 62.5 µL of PLE solution in PBS (100
# mixture was stored in the freezer (- 30 °C).
# by analytical HPLC (HPLC Method).
# similar to that for the chemical hydrolysis studies. […]
# as §2
# in vitro [3] = conditions: human, plasma
# Protocol: First prepare 50 mM solutions of TriPPPro-compounds 10 and 20 in DMSO. […]
# First prepare 3.0 mM hydrolysis solutions of Tri PPPro-compounds 10 and 20 in DMSO and H2O: 21 µL stock solution (50 mM in DMSO) and 154 µL DMSO, and 175 µL Milli-Q water. Three-twelve different samples (20 […]
# The calculation of t1/2 was obtained using Origin again.
# as §3
# µL 3.0 mM hydrolysis solutions) were prepared in 2 mL Eppendorf® vials. Then, aliquots of 50 µL human Plasma (Heparin or Citrate) were added to these samples and the reaction was started. The samples were […]
# incubated at 37 °C in a thermomixer for different time periods. The reaction was stopped by addition of 150 µL MeOH and kept on ice for 5 min. After centrifugation at 14,000 rpm for 22 min, the supernatants were filtered (Chromafil RC-20/15 MS, 0.2 μm) and stored in liquid nitrogen. When testing, aliquots of 25 0r 30 µL (injection volume) were analyzed by analytical HPLC (HPLC Method). The calculation of t1/2 was obtained using Origin […]
# Part 8. Preparation of cell extracts and human plasma. […]
# HIV‐1 [HE] = assay: Anti-HIV activity, HIV-1 in wild-type CEM/0 cells; type: cell-based; conditions: for EC50: Human immunodeficiency virus 1, CCRF-CEM, read-out: Antiviral activity CEM/0 HIV‐1 [HE] EC50
# HIV‐2 [ROD] = assay: Anti-HIV activity, HIV-2 in wild-type CEM/0 cells; type: cell-based; conditions: for EC50: Human immunodeficiency virus 2, CCRF-CEM, read-out: Antiviral activity CEM/0 HIV‐2 [ROD] EC50
# Protocol: (§4) Part 9. Anti-HIV activity assay.
# (§5) The produce was used as previously reported. 5 Inhibition of HIV-1(IIIB)- and HIV-2(ROD)-induced cytopathogenicity in wild-type CEM/0 and thymidine kinase-deficient CEM/TK– cell cultures was measured in […]
# (§6) containing appropriate dilutions of the test compounds. After 4−5 days of incubation at 37 °C in a CO2-controlled humidified atmosphere, CEM giant (syncytium) cell formation was examined microscopically. The […]
# (§7) giant cell formation by 50%.
# (§8) Part 10. Primer-extension assays. […]
# HIV‐2 [ROD)] = assay: Anti-HIV activity, HIV-2 in thymidine kinase-deficient CEM/TK^− cells; type: cell-based
# Protocol: as §4, §5, §6, §7, §8
# in vitro [4] = conditions: human, CEM/0 cells (wild-type CD4+ T-cells)
# Protocol: All TriPPPro‐compounds 10 and 20, as well as their parent nucleosides and the corresponding NTPs, were evaluated for their antiviral activity (expressed as EC50 values) against HIV‐1 (wild‐type CEM/0 cells) and HIV‐2 (wild‐type CEM/0 cells and thymidine kinase‐deficient (CEM/TK^−) cells) with concomitant determination of cytotoxicity in the same cell line (Table 3 ).
# [5] = wild-type CEM/0 cells, mean ±SD n = 2–3
# [6] = Human immunodeficiency virus 2, CEM-TK(-), thymidine kinase-deficient CEM/TK^− cells, mean ±SD n = 2–3; read-out: Antiviral activity CEM/TK^− HIV‐2 [ROD)] EC50
# [7] = t 1/2 in human plasma (over heparin and citrate plasma)
# [8] = wild-type CEM/0 cells, vs parent nucleoside
half-life at 1.9 mM [1] [days],half-life at 0.86 mM (in vitro [2]) [min],half-life at 0.45 mM (pig liver esterase (PLE)) [min],half-life at 0.86 mM (in vitro [3]; Plasma (Citrate) t 1/2) [min],half-life at 0.86 mM (in vitro [3]; Plasma (Heparin) t 1/2) [min],EC50 (HIV‐1 [HE]; [5]) [nM],EC50 (HIV‐2 [ROD]; [5]) [nM],EC50 (HIV‐2 [ROD)]; [6]) [nM],half-life at 0.86 mM (in vitro [3]; [7]) [min],SMILES,CC50 (in vitro [4]) [µM],EC50 (HIV‐1 [HE]) [nM],EC50 (HIV‐2 [ROD]) [nM],"EC50 (HIV‐2 [ROD)]; Human immunodeficiency virus 2, CEM-TK(-), read-out: Antiviral activity CEM/TK^− HIV‐2 [ROD)] EC50) [nM]","fold improvement compared to cycloSal‐ABCMP, HIV-1 (HIV‐1 [HE]; wild-type CEM/0 cells) [fold]","fold higher activity than the parent nucleoside, HIV-1 (HIV‐1 [HE]; [8]) [fold]","fold improvement compared to cycloSal‐ABCMP, HIV-2 (HIV‐2 [ROD]; wild-type CEM/0 cells) [fold]","fold higher activity than the parent nucleoside, HIV-2 (HIV‐2 [ROD]; [8]) [fold]","fold improved activity compared to the parent nucleoside, HIV-2 (HIV‐2 [ROD)]; CEM/TK^− cells, vs parent nucleoside) [fold]","fold higher activity compared to the corresponding compound 20 (HIV‐2 [ROD)]; HIV-2, CEM/TK^− cells, vs 20h) [fold]","improvement of antiviral activity in CEM/TK^− cells compared to wild-type CEM/0 cells (HIV‐2 [ROD)]; same compound, CEM/TK^− vs CEM/0)"
> 83.3,> 1800,> 9000,> 1200,222,28 ± 31,30 ± 1,4100 ± 2600,,"CCCCCCCCCCCCCCCCCCOP(=O)(O)OP(=O)(O)OP(=O)(O)OCC1OC(n2cc(C)c(=O)[nH]c2=O)CC1N=[N+]=[N-] (stereo not drawn) [20b, γ‐(alkyl‐C18)‐AZTTP]",> 100,,,,,,,,,,
17.4,198,13.2,222,312,190 ± 120,5.2 ± 4.1,500 ± 350,,"CCCCCCCCCCCCCCCCCCOP(=O)(OCc1ccc(OC(=O)CCCC)cc1)OP(=O)(O)OP(=O)(O)OCC1OC(n2cc(C)c(=O)[nH]c2=O)CC1N=[N+]=[N-] (stereo not drawn) [10by, γ‐(AB‐C4;alkyl‐C18)‐AZTTP]",60.1,,,,,,,,,,
22.2,462,66.6,336,246,200,170 ± 64,19 ± 1,246 to 336,"CCCCCCCCCCCCCCCCCCP(=O)(OCc1ccc(OC(=O)CCCC)cc1)OP(=O)(O)OP(=O)(O)OC[C@@H]1C=C[C@H](n2cnc3c(NC4CC4)nc(N)nc32)C1 (stereo partly drawn) [10hz, γ‐(AB‐C4)‐γ‐C‐(alkyl‐C18)‐ABCTP]",38.2 ± 1.3,,,,,,,,,,
> 83.3,> 1800,> 9000,> 1200,> 1200,41 ± 19,26 ± 7,290 ± 150,> 480,"CCCCCCCCCCCCCCCCCCOP(=O)(OCCCC)OP(=O)(O)OP(=O)(O)OC[C@H]1O[C@@H](n2cc(C)c(=O)[nH]c2=O)C[C@@H]1N=[N+]=[N-] (stereo partly drawn) [10bv, γ‐(alkyl‐C4;alkyl‐C18)‐AZTTP]",64.9,,,,,,,,,,
10.5,180,> 9000,> 1200,> 480,24 ± 1.4,46 ± 16,4.8 ± 2.1,> 480,"CCCCCCCCCCCCCCCCCCOP(=O)(OCCCC)OP(=O)(O)OP(=O)(O)OC[C@@H]1C=C[C@H](n2cnc3c(NC4CC4)nc(N)nc32)C1 (stereo partly drawn) [10hv, γ‐(C4;C18)‐ABCTP]",39 ± 4.7,,,,30,~400,16,80,410,33,tenfold
1.92,78,58.2,,,960 ± 490,290 ± 160,210 ± 110,,CCCCCCCCCCCCCCCCCCOP(=O)(OCc1ccc(OC(=O)CCCC)cc1)OP(=O)(O)OP(=O)(O)OC[C@@H]1C=C[C@H](n2cnc3c(NC4CC4)nc(N)nc32)C1 (stereo partly drawn) [10hy],> 100,,,,,,,,,,
> 83.3,> 600,> 9000,> 1200,288,260 ± 130,420 ± 110,160 ± 160,,"CCCCCCCCCCCCCCCCCCOP(=O)(O)OP(=O)(O)OP(=O)(O)OC[C@@H]1C=C[C@H](n2cnc3c(NC4CC4)nc(N)nc32)C1 [20h, γ‐C18‐ABCTP]",> 100,,,,,,,,,,
> 83.3,> 1200,> 9000,,,> 10000,> 10000,15700 ± 980,,CCCCCCCCCCCCCCCCCCOP(=O)(O)OP(=O)(O)OP(=O)(O)OC[C@H]1O[C@@H](n2cc(/C=C/Br)c(=O)[nH]c2=O)C[C@@H]1O [20g],> 100,,,,,,,,,,
> 83.3,> 600,> 9000,,,39 ± 35,74 ± 27,3.2,,"CCCCCCCCCCCCCCCCCCOP(=O)(OCCCC)OP(=O)(O)OP(=O)(O)OC[C@@H]1O[C@H](n2cc(F)c(N)nc2=O)CS1 (stereo partly drawn) [10cv, γ‐(C4;C18)‐FTCTP]",51.2 ± 7.7,,,,,,,,,,
10.5,204,14.4,,,140 ± 65,180 ± 150,62 ± 59,,"CCCCCCCCCCCCCCCCCCOP(=O)(OCc1ccc(OC(=O)CCCC)cc1)OP(=O)(O)OP(=O)(O)OC[C@@H]1O[C@H](n2cc(F)c(N)nc2=O)CS1 (stereo partly drawn) [10cy, γ‐(AB‐C4;alkyl‐C18)‐FTCTP]",51.9,,,,,,,,,,

SMILES,half-life at 1.9 mM [1] [days],half-life at 0.86 mM (in vitro [2]) [min],half-life at 0.45 mM (pig liver esterase (PLE)) [min],half-life at 0.86 mM (in vitro [3]; Plasma (Citrate) t 1/2) [min],half-life at 0.86 mM (in vitro [3]; Plasma (Heparin) t 1/2) [min],EC50 (HIV‐1 [HE]; [5]) [nM],EC50 (HIV‐2 [ROD]; [5]) [nM],EC50 (HIV‐2 [ROD)]; [6]) [nM],half-life at 0.86 mM (in vitro [3]; [7]) [min],CC50 (in vitro [4]) [µM],EC50 (HIV‐1 [HE]) [nM],EC50 (HIV‐2 [ROD]) [nM],"EC50 (HIV‐2 [ROD)]; Human immunodeficiency virus 2, CEM-TK(-), read-out: Antiviral activity CEM/TK^− HIV‐2 [ROD)] EC50) [nM]","fold improvement compared to cycloSal‐ABCMP, HIV-1 (HIV‐1 [HE]; wild-type CEM/0 cells) [fold]","fold higher activity than the parent nucleoside, HIV-1 (HIV‐1 [HE]; [8]) [fold]","fold improvement compared to cycloSal‐ABCMP, HIV-2 (HIV‐2 [ROD]; wild-type CEM/0 cells) [fold]","fold higher activity than the parent nucleoside, HIV-2 (HIV‐2 [ROD]; [8]) [fold]","fold improved activity compared to the parent nucleoside, HIV-2 (HIV‐2 [ROD)]; CEM/TK^− cells, vs parent nucleoside) [fold]","fold higher activity compared to the corresponding compound 20 (HIV‐2 [ROD)]; HIV-2, CEM/TK^− cells, vs 20h) [fold]","improvement of antiviral activity in CEM/TK^− cells compared to wild-type CEM/0 cells (HIV‐2 [ROD)]; same compound, CEM/TK^− vs CEM/0)"
CCCCCCCCCCCCCCCCCCP(=O)(OCCCC)OP(=O)(O)OP(=O)(O)OC[C@@H]1C=C[C@H](n2cnc3c(NC4CC4)nc(N)nc32)C1 (stereo partly drawn) [10hx],> 41.7,> 600,> 9000,> 1200,> 1200,,,,> 480,38.6,150 ± 140,44 ± 33,5.8,,,,,,,
